Reference: patent US20220024970A1, “COMPOUNDS WITH HIV MATURATION INHIBITORY ACTIVITY” (VIIV HEALTHCARE UK (NO. 4) LIMITED, priority 2018, published 2022)
Where a name gives a salt, the structure may show the parent alone.

Key:
Format in all cases: physicochemical
[1] = Thermal behaviour during heating (DSC)
Protocol: Differential Scanning calorimetry (DSC) data were acquired on a TA Instruments Q20 DSC. The method parameters were: Heat Program: 30° C. to 300° C. using a 10° C. per minute heating rate, under a nitrogen gas flow.

[2] = Solubility in simulated intestinal fluids at controlled ambient room temperature; settings: for Solubility in FaSSIF and FeSSIF (in words): mesylate compared to the bis-HCl salt
[3] = Water vapor sorption (DVS) at 25° C.
Protocol: Water vapor sorption experiments were performed using a Surface Measurement System DVS Advantage at 25° C. The Bis-HCl salt of Compound A reversibly absorbed approximately 7% weight per weight of water between 0% and 90% relative humidity at 25° C. […] Upon desorption the conversions were reversible. The Form 1 crystalline mesylate salt of Compound A reversibly absorbed approximately 1.6% weight per weight of water between 0% and 90% relative humidity at 25° C.

[4] = Fasted State Simulated Intestinal Fluid (FaSSif) pH 6.5, controlled ambient room temperature
[5] = Fed State Simulated Intestinal Fluid (FeSSif) pH 6.5, controlled ambient room temperature

C=C(C)[C@@H]1CC[C@]2(NCCN3CCS(=O)(=O)CC3)CC[C@]3(C)[C@H](CC[C@@H]4[C@@]5(C)CC=C(C6=CC[C@@](CF)(C(=O)O)CC6)C(C)(C)[C@@H]5CC[C@]43C)[C@@H]12 [Form 1 of Mesylate salt of Compound A]
Thermal loss of counter-ion during heating [1]: does not show this behavior | Solubility in FaSSIF and FeSSIF (in words) ([2]; listed as Form 1 of the mesylate salt of Compound A): greater solubility | Solubility of Specified Version [2, 4]: 0.1 mg/mL | Solubility of Specified Version [2, 5]: 0.6 mg/mL | Solid form change upon moisture sorption ([3]; ambient humidity conditions): no significant form change | Water reversibly absorbed ([3]; between 0% and 90% relative humidity at 25° C.): approximately 1.6 % weight per weight | Hygroscopicity (in words) ([3]; compared to the bis-HCl salt, ambient humidity conditions): lower hygroscopicity

C=C(C)[C@@H]1CC[C@]2(NCCN3CCS(=O)(=O)CC3)CC[C@]3(C)[C@H](CC[C@@H]4[C@@]5(C)CC=C(C6=CC[C@@](CF)(C(=O)O)CC6)C(C)(C)[C@@H]5CC[C@]43C)[C@@H]12 [Parent Compound A, (1R)-4-[(1R,3aS,5aR,5bR,7aR,11aS,11bR,13aR,13bR)-3a-{[2-(1,1-dioxido-4-thiomorpholinyl)ethyl]amino}-5a,5b,8,8,11a-pentamethyl-1-(1-propen-2-yl)-2,3,3a,4,5,5a,5b,6,7,7a,8,11,11a,11b,12,13,13a,13b-octadecahydro-1H-cyclopenta[a]chrysen-9-yl]-1-(fluoromethyl)-3-cyclohexene-1-carboxylic acid]
Solubility in FaSSIF and FeSSIF (in words) ([2]; listed as parent free base of Compound A): poor solubility | Solubility of Specified Version [2, 4]: Less than 0.001 mg/mL | Solubility of Specified Version [2, 5]: Less than 0.001 mg/mL
